In this test the target is MAP kinase p38 (Homo sapiens, UniProt O15264+Q15759+Q16539+P53778). Briefly: Binding affinity against p38 MAP kinase system. It is filed as protein assay.

Take `O=c1ncn2nc(Sc3cccc(F)c3)ccc2c1-c1c(Cl)cccc1Cl`: the pIC50 was 6.347.

With `Cc1ccc(Sc2ccc3c(-c4c(Cl)cccc4Cl)c(=O)ncn3n2)cc1`, the pIC50 turned out to be 5.854.

The molecule `O=c1ncn2nc(Sc3ccc(F)cc3Cl)ccc2c1-c1c(Cl)cccc1Cl` had a pIC50 of 7.444.

`Cc1ccc(Sc2ccc3c(-c4c(Cl)cccc4Cl)c(=O)ncn3n2)c(C)c1` had a pIC50 of 6.577.

As to `O=c1ncn2nc(Sc3ccc(F)c(Cl)c3)ccc2c1-c1c(Cl)cccc1Cl`, the pIC50 was 6.301.

Turning to `O=c1ncn2nc(Sc3ccccc3Br)ccc2c1-c1c(Cl)cccc1Cl`, the pIC50 came to 6.602.

The molecule `O=c1ncn2nc(Sc3ccc(F)cc3)ccc2c1-c1c(Cl)cccc1Cl` displayed a pIC50 of 7.

Consider `O=c1ncn2nc(Sc3ccccc3)ccc2c1-c1c(Cl)cccc1Cl`, for which the pIC50 worked out at 6.602.

For `O=c1ncn2nc(Sc3ccc(Cl)c(Cl)c3)ccc2c1-c1c(Cl)cccc1Cl`, the pIC50 was found to be 6.097.

Regarding `Cc1ccccc1Sc1ccc2c(-c3c(Cl)cccc3Cl)c(=O)ncn2n1`, the pIC50 was 6.699.

Regarding `O=c1ncn2nc(Sc3ccccc3O)ccc2c1-c1c(Cl)cccc1Cl`, the negative-log IC50 (pIC50) was found to be 6.444.

The molecule `O=c1ncn2nc(Sc3cccc(Cl)c3)ccc2c1-c1c(Cl)cccc1Cl` displayed a pIC50 of 6.553.

Molecule `Nc1cc(F)ccc1Sc1ccc2c(-c3c(Cl)cccc3Cl)c(=O)ncn2n1` showed a pIC50 of 6.658. This pIC50 and that of the molecule before are within 0.2 log units of each other.

Regarding `Cc1cc(Cl)ccc1Sc1ccc2c(-c3c(Cl)cccc3Cl)c(=O)ncn2n1`, the pIC50 came to 6.745. The pIC50 values of the last two molecules are within 0.2 log units of each other.

In turn, `Cc1cccc(Sc2ccc3c(-c4c(Cl)cccc4Cl)c(=O)ncn3n2)c1` showed a pIC50 of 5.854.

Turning to `Cc1ccc(Sc2ccc3c(-c4c(Cl)cccc4Cl)c(=O)ncn3n2)cc1C`, the pIC50 was determined as 5.721. The pIC50 values of the last two molecules are within 0.2 log units of each other.

(Values after ChEMBL document CHEMBL1134628, “Are free energy calculations useful in practice? A comparison with rapid scoring functions for the p38 MAP kinase protein system” (J Med Chem, 2001).)
